These results are taken from ChEMBL document CHEMBL1152710, “The design and discovery of novel amide CCR5 antagonists” (Bioorg Med Chem Lett, 2009).

Data set [1] has as its target T1, C-C chemokine receptor type 5 (Homo sapiens, UniProt P51681). Put plainly: Antagonist activity at human recombinant CCR5 expressed in human HeLa-P4 cells assessed as inhibition of human HeLa-P4 cells binding to HIV1 gp160 expressing CHO cells at 1 uM by cell-cell fusion assay. In kind it is cell-based. On the set-up: scale not given: the % may be the effect or the level left.
Target sequence in this assay (P51681 whole entry, looked up, the tested form may be a part): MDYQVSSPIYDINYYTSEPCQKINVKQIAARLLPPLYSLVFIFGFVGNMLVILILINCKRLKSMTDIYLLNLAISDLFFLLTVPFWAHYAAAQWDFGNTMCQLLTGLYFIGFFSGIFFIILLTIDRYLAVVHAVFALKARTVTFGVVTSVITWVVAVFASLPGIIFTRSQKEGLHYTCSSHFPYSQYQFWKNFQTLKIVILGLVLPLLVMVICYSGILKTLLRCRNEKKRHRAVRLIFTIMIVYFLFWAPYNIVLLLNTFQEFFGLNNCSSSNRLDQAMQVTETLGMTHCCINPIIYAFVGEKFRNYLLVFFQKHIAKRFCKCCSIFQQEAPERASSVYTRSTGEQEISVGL

In data set [2] the target is T1, C-C chemokine receptor type 5. Put plainly: Antagonist activity at human recombinant CCR5 expressed in human HeLa-P4 cells assessed as inhibition of human HeLa-P4 cells binding to HIV1 gp160 expressing CHO cells at 10 uM by cell-cell fusion assay. In kind it is cell-based. More on the design: scale not given: the % may be the effect or the level left.
Target sequence in this assay (P51681 whole entry, looked up, the tested form may be a part): as above
For data set [3] the target is unchanged. Put plainly: Antagonist activity at human recombinant CCR5 expressed in human HeLa-P4 cells assessed as inhibition of human HeLa-P4 cells binding to HIV1 gp160 expressing CHO cells at 100 nM by cell-cell fusion assay. It is filed as cell-based. On the set-up: scale not given: the % may be the effect or the level left.
Target sequence in this assay (P51681 whole entry, looked up, the tested form may be a part): as above
Data set [4] can be described thus: Lipophilicity, log D at pH 7.4. It is filed as physicochemical. The following applies: buffer.
Data set [5] is described as follows: Metabolic stability in human liver microsomes assessed as intrinsic clearance at 1 uM after 30 mins. It is filed as ADME, Microsome. On the technique in general: Microsomes from liver hold many membrane-bound enzymes, among them those of drug oxidation.
The target of data set [6] is T1, C-C chemokine receptor type 5. Kind of data set: Displacement of [125]Mip1beta form CCR5 receptor expressed in MIP34.10 cells. It is filed as cell-based.
Target sequence in this assay (P51681 whole entry, the tested form may be a part): as the sequence (P51681 whole entry, looked up, the tested form may be a part) above
Data set [7] concerns Human immunodeficiency virus 1. Put plainly: Antiviral activity against HIV1 Bal infected in human PM1 cells assessed as inhibition of viral replication. It is filed as functional. The following applies: Human immunodeficiency virus 1, Bal.
The target of data set [8] is Voltage-gated inwardly rectifying potassium channel KCNH2 (Homo sapiens, UniProt Q12809). Kind of data set: Displacement of [3H]dofetilide form human ERG expressed in HEK239 cells. For orientation: In a radioligand displacement assay an active substance lowers the binding of a labelled ligand.
Chain of Voltage-gated inwardly rectifying potassium channel KCNH2 (Q12809 whole entry): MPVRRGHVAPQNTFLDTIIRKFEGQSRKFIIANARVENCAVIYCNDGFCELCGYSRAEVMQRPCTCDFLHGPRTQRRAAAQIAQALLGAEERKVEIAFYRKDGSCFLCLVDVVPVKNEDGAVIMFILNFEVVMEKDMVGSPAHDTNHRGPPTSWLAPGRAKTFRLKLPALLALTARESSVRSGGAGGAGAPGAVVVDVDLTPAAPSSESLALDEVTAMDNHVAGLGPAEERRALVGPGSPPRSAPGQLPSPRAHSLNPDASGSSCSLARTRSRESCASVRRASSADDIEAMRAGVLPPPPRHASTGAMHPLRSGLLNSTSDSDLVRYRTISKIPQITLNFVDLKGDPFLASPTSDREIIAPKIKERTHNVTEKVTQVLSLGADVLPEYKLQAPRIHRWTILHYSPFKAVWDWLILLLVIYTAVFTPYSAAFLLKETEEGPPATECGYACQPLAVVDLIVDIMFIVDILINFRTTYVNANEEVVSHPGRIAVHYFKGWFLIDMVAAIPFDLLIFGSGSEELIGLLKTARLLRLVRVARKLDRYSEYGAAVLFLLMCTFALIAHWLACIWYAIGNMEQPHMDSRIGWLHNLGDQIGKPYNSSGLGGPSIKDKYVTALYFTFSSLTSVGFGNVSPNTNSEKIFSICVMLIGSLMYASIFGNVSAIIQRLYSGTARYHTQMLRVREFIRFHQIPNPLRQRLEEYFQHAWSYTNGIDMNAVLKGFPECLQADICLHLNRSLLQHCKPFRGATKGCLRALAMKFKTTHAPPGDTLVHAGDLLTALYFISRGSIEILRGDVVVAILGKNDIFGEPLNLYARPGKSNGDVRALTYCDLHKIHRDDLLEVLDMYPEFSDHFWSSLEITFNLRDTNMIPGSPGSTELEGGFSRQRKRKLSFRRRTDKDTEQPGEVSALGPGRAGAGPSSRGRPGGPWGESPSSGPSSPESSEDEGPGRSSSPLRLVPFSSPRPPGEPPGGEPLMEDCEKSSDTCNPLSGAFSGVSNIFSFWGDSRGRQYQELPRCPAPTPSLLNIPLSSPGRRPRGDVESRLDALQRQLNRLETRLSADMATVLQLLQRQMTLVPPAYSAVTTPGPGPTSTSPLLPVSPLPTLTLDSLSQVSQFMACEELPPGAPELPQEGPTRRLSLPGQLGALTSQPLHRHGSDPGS

As to `Cc1ccnc(C)c1C(=O)N1CCC(N2CCC(CNC(=O)C3CC3)(Cc3ccccc3)CC2)CC1`, in data set [1], the Activity worked out at 18%.

For the compound `Cc1cccc(C)c1C(=O)N1CCC(N2CCCC(CC(NC(=O)C3CCC3)c3ccccc3)C2)CC1` (mixture of isomers), the Activity in data set [2] turned out to be 20%.

`CC(=O)NC(c1ccccc1)[C@H]1CCN(C2CCN(C(=O)c3c(C)cccc3C)CC2)C1` (single isomer, unassigned; diastereomer 2): the Activity in data set [2] stood at 0%.

On to `Cc1ccnc(C)c1C(=O)N1CCN(C2C[C@H]3CC[C@@H](C2)N3C(c2ccccc2)c2ccccc2)CC1` (mixture of isomers), for which the Activity in data set [2] was 25%.

As for `Cc1cccc(C)c1C(=O)N1CCC(N2[C@@H]3CC[C@H]2C[C@H](N(Cc2ccccc2)C(=O)C2CC2)C3)CC1`, the Activity in data set [1] came to 10%.

Consider `Cc1ccnc(C)c1C(=O)N1CCC(N2CCC(C(Cc3ccccc3)C(=O)NCC3CC3)CC2)CC1` (centres undefined), for which the Activity in data set [2] was found to be 20%.

As to `Cc1ccnc(C)c1C(=O)NCCN1CCN(C(c2ccccc2)c2ccccc2)CC1`, in data set [3], the Activity was 15%.

Turning to `CC(=O)NC(c1ccccc1)C1CCCN(CCNC(=O)c2c(C)cccc2C)C1` (single isomer, unassigned; diastereomer 2), the Activity in data set [2] was 12%.

On to `Cc1ccnc(C)c1C(=O)N1C2CCC1CN(C1CCN(C(c3ccccc3)c3ccccc3)CC1)C2`, for which, in data set [3], the Activity came out at 12%.

As to `CC(=O)NC(CN1CC(N(C)C2CCN(C(=O)c3c(C)cccc3C)CC2)C1)c1ccccc1` (centres undefined), the Activity in data set [2] was found to be 50%.

As to `CC(=O)NC1(c2ccccc2)CCN(C2CCN(C(=O)c3c(C)ccnc3C)CC2)CC1`, in data set [2], the Activity turned out to be 20%.

As for `CC(=O)NC(c1ccccc1)C1CCCN(C2CCN(C(=O)c3c(C)cccc3C)CC2)C1` (single isomer, unassigned; diastereomer 2), in data set [2], the Activity came to 0%.

Take `Cc1ccnc(C)c1C(=O)N1CCN(CCC(c2ccccc2)c2ccccc2)CC1`: the Activity in data set [2] is 0%.

With `Cc1cccc(C)c1C(=O)N1CCC(N(C)C2CN(C(CNC(=O)C3CCC3)c3ccccc3)C2)CC1` (centres undefined), the Activity in data set [2] turned out to be 20%.

On to `CC(=O)NC(c1ccccc1)C1CCCN(CCNC(=O)c2c(C)cccc2C)C1` (single isomer, unassigned; diastereomer 1), for which the Activity in data set [2] amounted to 20%.

Consider `Cc1cccc(C)c1C(=O)N1CCC(N2CC[C@@H](N(Cc3ccccc3)C(=O)C3CC3)C2)CC1`, for which the logD (usually the decadic logarithm of the distribution of all forms, ionised or not, between an organic phase and buffer at a given pH) in data set [4] came to 2.6. The microsomal CLint – broadly, a measure of how fast metabolising enzymes remove a compound, apart from limits set by blood flow – at 1 µM in data set [5] stood at 195 µL/min/mg. In addition, the IC50 (as a rule, the point on the concentration scale where inhibition reaches its midpoint) in data set [6] came to 8 nM; in data set [8], 9800 nM. In addition, the IC90 (as a rule, the concentration needed for an effect of 90%) in data set [7] is 2 nM.

For the compound `Cc1ccnc(C)c1C(=O)N1[C@@H]2CC[C@H]1C[C@H](N1CCN(C(c3ccccc3)c3ccccc3)CC1)C2`, in data set [3], the Activity is 6%.

On to `Cc1ccnc(C)c1C(=O)N1CCC(N(C)CCC(c2ccccc2)c2ccccc2)CC1`, for which the Activity in data set [3] is 13%.

`CC(=O)NC(c1ccccc1)[C@H]1CCN(C2CCN(C(=O)c3c(C)cccc3C)CC2)C1` (single isomer, unassigned; diastereomer 1): the Activity in data set [1] stood at 18%.

On to `Cc1cccc(C)c1C(=O)N1CCC(N2CCC(N(Cc3ccccc3)C(=O)C3CCC3)CC2)CC1`, for which the logD in data set [4] turned out to be 3.5. In addition, the microsomal CLint at 1 µM in data set [5] is 205 µL/min/mg. For the same compound, the IC90 in data set [7] was 40 nM.

`CC(=O)NC(c1ccccc1)C1CCCN(C2CCN(C(=O)c3c(C)cccc3C)CC2)C1` (single isomer, unassigned; diastereomer 1): the Activity in data set [2] came out at 28%.

For `Cc1cccc(C)c1C(=O)N1CCC(N2CCCC(N(Cc3ccccc3)C(=O)C3CC3)C2)CC1` (racemic), the Activity in data set [2] worked out at 19%.

For `Cc1ccnc(C)c1C(=O)N1[C@@H]2CC[C@H]1C[C@@H](N1CCN(C(c3ccccc3)c3ccccc3)CC1)C2`, the Activity in data set [2] worked out at 21%.
